Molecules are shown by their SMILES.

Assay [1] deals with Estrogen receptor (Homo sapiens) (UniProt Q92731+P03372).
Description: Estrogen receptor (ER) binding affinity
For the next assay, the system named is MCF7. As to the kind of experiment: cells. Particulars: Homo sapiens.

Description for MCF7: Growth response in cultures of MCF-7 (human breast cancer cell line) cells

In the case of `C[C@]12CC[C@@H]3c4ccc(O)c([N+](=O)[O-])c4CCC3[C@@H]1CC[C@@H]2O` (single isomer, unassigned), the Ka in assay [1] worked out at 1.44e+08 M⁻¹. For the same molecule, in the assay with MCF7, the EC50 is 0.9 nM. Turning to `C[C@]12CC[C@@H]3c4cccc(I)c4CCC3[C@@H]1CC[C@@H]2O` (single isomer, unassigned), in assay [1], the Ka stood at 4.44e+06 M⁻¹. The molecule further registered an EC50 in the assay with MCF7 of 1.67 nM. Turning to `C[C@]12CC[C@@H]3c4cccc(O)c4CCC3[C@@H]1CC[C@@H]2O` (single isomer, unassigned), the Ka in assay [1] came out at 2.5e+08 M⁻¹. This molecule also displayed a 50% effective concentration (EC50) with MCF7 of 4.76 nM.

With `C[C@]12C[C@@H](O)[C@@H]3c4ccc(O)cc4CCC3[C@@H]1CC[C@@H]2O` (single isomer, unassigned), the Ka in assay [1] is 1.15e+07 M⁻¹. In addition, the half-maximal effective concentration (EC50) with MCF7 was 0.0365 nM. Consider `C[C@]12CC[C@@H]3c4ccc(O)c(N)c4CCC3[C@@H]1CC[C@@H]2O` (single isomer, unassigned), for which the Ka in assay [1] came to 2.11e+08 M⁻¹. In addition, a half-maximal response with MCF7 (EC50) required 0.346 nM. On to `C[C@]12C[C@H](O)[C@@H]3c4ccc(O)cc4CCC3[C@@H]1CC[C@@H]2O` (single isomer, unassigned), for which, in assay [1], the Ka came out at 6.22e+07 M⁻¹. For the same molecule, in the assay on MCF7, a half-maximal response (EC50) required 0.0163 nM. The like results for `C[C@]12CCc3c(ccc4cc(O)ccc34)[C@@H]1CC[C@@H]2O` were, in that order, 1.52e+09 M⁻¹ and 0.0125 nM. In the same order, the values of `C[C@]12CC[C@@H]3c4cccc(N)c4CCC3[C@@H]1CC[C@@H]2O` (single isomer, unassigned) are 2.15e+07 M⁻¹ and 2 nM. In assay [1], `C[C@]12CC[C@@H]3c4cc([N+](=O)[O-])c(O)cc4CCC3[C@@H]1CC[C@@H]2O` (single isomer, unassigned) returned a Ka of 3.7e+06 M⁻¹. For the same molecule, in the assay on MCF7, the concentration for a half-maximal effect (EC50) was 33.5 nM. `C[C@]12CC[C@@H]3c4c(cccc4[N+](=O)[O-])CCC3[C@@H]1CC[C@@H]2O` (single isomer, unassigned): the Ka in assay [1] is under 1.85e+06 M⁻¹. The molecule further had a concentration for a half-maximal effect (EC50) with MCF7 of 60.4 nM. The molecule `C[C@@]12CCC[C@H]1C1CCc3cc(O)ccc3[C@H]1CC2` (single isomer, unassigned) yielded a Ka in assay [1] of 2.93e+09 M⁻¹. The molecule further returned a concentration giving a half-maximal response (EC50) in the assay with MCF7 of 0.118 nM. On to `C[C@]12CC[C@@H]3c4ccc([N+](=O)[O-])cc4CCC3[C@@H]1CC[C@@H]2O` (single isomer, unassigned), for which the Ka in assay [1] came out at 7.77e+06 M⁻¹. Besides, the EC50 in the assay with MCF7 came out at 2.16 nM. In the same order, the values of `C[C@]12CC[C@@H]3c4ccccc4CCC3[C@@H]1CC[C@@H]2O` (single isomer, unassigned) are 4.1e+08 M⁻¹ and 0.316 nM.

Take `C[C@]12CC[C@@H]3c4ccc(O)cc4C[C@@H](O)C3[C@@H]1CC[C@@H]2O` (single isomer, unassigned): in assay [1], the Ka worked out at 6.3e+07 M⁻¹. In addition, it took 0.153 nM to reach a half-maximal effect with MCF7 (EC50). Take `C[C@]12CC[C@H]3C(=CCc4cc(O)ccc43)[C@@H]1CC[C@@H]2O`: the 50% effective concentration (EC50) in the assay with MCF7 was determined as 0.00154 nM. The molecule `C[C@]12CC[C@@H]3c4ccc(O)cc4[C@H](O)CC3[C@@H]1CC[C@@H]2O` (single isomer, unassigned) registered a Ka in assay [1] of 7e+07 M⁻¹. Besides, the EC50 with MCF7 amounted to 0.0571 nM. In assay [1], `C[C@]12CC[C@H]3[C@H](CC=C4C[C@@H](O)CC[C@@]43C)[C@@H]1CC[C@@H]2O` registered a Ka of 2.7e+07 M⁻¹. In addition, in the assay on MCF7, the EC50 was 1.41 nM. For the molecule `C[C@]12CC[C@@H]3c4cc(N)ccc4CCC3[C@@H]1CC[C@@H]2O` (single isomer, unassigned), in assay [1], the Ka is 1.45e+08 M⁻¹. Besides, in the assay on MCF7, the EC50 is 0.127 nM. On to `C[C@]12CC[C@@H]3c4cc(O)ccc4CCC3[C@@H]1CC[C@@H]2O` (single isomer, unassigned), for which the Ka in assay [1] was 2.6e+09 M⁻¹. The same molecule returned a half-maximal effective concentration (EC50) in the assay with MCF7 of 0.033 nM. Molecule `C[C@@]12CCC[C@H]1C1CCc3ccccc3[C@H]1CC2` (single isomer, unassigned) had a Ka in assay [1] of under 1.8e+06 M⁻¹. The molecule also came in with a concentration giving a half-maximal response (EC50) in the assay on MCF7 of 201 nM.

Take `C[C@]12CC[C@@H]3c4ccc(O)cc4C=C[C@@H]3[C@@H]1CC[C@@H]2O`: in the assay on MCF7, the EC50 turned out to be 0.00419 nM. In other words, the picomolar range.

In turn, `C[C@]12CC[C@@H]3c4ccc(O)cc4CCC3[C@@H]1C[C@@H](O)[C@@H]2O` (single isomer, unassigned) [ESTRIOL] showed an EC50 in the assay on MCF7 of 0.0483 nM. `C[C@]12CC[C@@H]3c4ccc(O)cc4CCC3[C@@H]1C[C@@H](O)C2` (single isomer, unassigned) had a Ka in assay [1] of 2.97e+09 M⁻¹. For the same molecule, a half-maximal response with MCF7 (EC50) required 0.237 nM.

Turning to `C[C@]12CC[C@@H]3c4c(N)cccc4CCC3[C@@H]1CC[C@@H]2O` (single isomer, unassigned), the Ka in assay [1] was under 1.85e+06 M⁻¹. The molecule also registered an EC50 in the assay on MCF7 of 28.4 nM. In assay [1], `C[C@]12CC[C@@H]3c4ccc(N)cc4CCC3[C@@H]1CC[C@@H]2O` (single isomer, unassigned) displayed a Ka of 2.78e+11 M⁻¹. The response in the assay with MCF7 was half-maximal at 1.5 nM (EC50). `C[C@]12CC[C@@H]3c4cc([N+](=O)[O-])ccc4CCC3[C@@H]1CC[C@@H]2O` (single isomer, unassigned): the Ka in assay [1] was under 1.85e+06 M⁻¹. The same molecule gave a concentration for a half-maximal effect (EC50) in the assay on MCF7 of 29.3 nM. In turn, `C[C@]12CC[C@@H]3c4cc(I)ccc4CCC3[C@@H]1CC[C@@H]2O` (single isomer, unassigned) yielded a Ka in assay [1] of 3.33e+06 M⁻¹. In the assay on MCF7, this molecule yielded an EC50 of 1.7 nM. On to `C[C@]12CC[C@@H]3c4ccc(O)cc4CC(=O)C3[C@@H]1CC[C@@H]2O` (single isomer, unassigned), for which the Ka in assay [1] came to 3.39e+09 M⁻¹. Also, in the assay with MCF7, the EC50 stood at 0.016 nM.

`C[C@]12CC[C@@H]3c4cc(N)c(O)cc4CCC3[C@@H]1CC[C@@H]2O` (single isomer, unassigned): the Ka in assay [1] was 1.33e+08 M⁻¹. Moreover, the concentration for a half-maximal effect (EC50) in the assay with MCF7 was 0.558 nM. In the case of `C[C@]12CC[C@H](O)C[C@@H]1CCC1[C@@H]2CC[C@]2(C)[C@@H](O)CC[C@@H]12` (single isomer, unassigned) [ANDROSTANEDIOL], in assay [1], the Ka is 1.8e+07 M⁻¹. In the assay with MCF7, this molecule yielded an EC50 of 4.66 nM. Regarding `C[C@]12CC[C@@H]3c4ccc(O)cc4[C@@H](O)CC3[C@@H]1CC[C@@H]2O` (single isomer, unassigned), the Ka in assay [1] turned out to be 8.88e+07 M⁻¹. The molecule also came in with an EC50 in the assay with MCF7 of 0.186 nM. The like results for `C[C@]12CC[C@@H](O)C[C@@H]1CCC1[C@@H]2CC[C@]2(C)[C@@H](O)CC[C@@H]12` (single isomer, unassigned) [ANDROSTANDIOL] were, in that order, under 1.85e+06 M⁻¹ and over 10000 nM.

In assay [1], `C[C@]12CC[C@@H]3c4c(O)cccc4CCC3[C@@H]1CC[C@@H]2O` (single isomer, unassigned) registered a Ka of 1.8e+07 M⁻¹. Moreover, in the assay on MCF7, the EC50 came to 1.59 nM.

Molecule `C[C@]12CC[C@@H]3c4ccc(O)cc4C(=O)CC3[C@@H]1CC[C@@H]2O` (single isomer, unassigned) displayed a Ka in assay [1] of 1.09e+09 M⁻¹. Besides, the response in the assay on MCF7 was half-maximal at 0.00338 nM (EC50). `C[C@]12CC[C@@H]3c4cccc([N+](=O)[O-])c4CCC3[C@@H]1CC[C@@H]2O` (single isomer, unassigned) registered a Ka in assay [1] of under 1.85e+06 M⁻¹. Also, the half-maximal effective concentration (EC50) with MCF7 was found to be 34.2 nM. `C[C@]12CC[C@@H]3c4ccc(I)cc4CCC3[C@@H]1CC[C@@H]2O` (single isomer, unassigned) came in with a Ka in assay [1] of 1.96e+07 M⁻¹. For the same molecule, a half-maximal effect in the assay with MCF7 (EC50) was put at 0.174 nM.

For `C[C@]12CC(=O)[C@@H]3c4ccc(O)cc4CCC3[C@@H]1CC[C@@H]2O` (single isomer, unassigned), the Ka in assay [1] was found to be 3.33e+06 M⁻¹. A half-maximal response in the assay with MCF7 (EC50) required 8.97 nM. In assay [1], `C[C@]12CC[C@@H]3c4ccc(O)cc4C[C@H](O)C3[C@@H]1CC[C@@H]2O` (single isomer, unassigned) had a Ka of 3.66e+09 M⁻¹. Besides, the response in the assay with MCF7 was half-maximal at 0.0122 nM (EC50).

The values are drawn from ChEMBL document CHEMBL1130222, “Induction of the estrogen specific mitogenic response of MCF-7 cells by selected analogues of estradiol-17 beta: a 3D QSAR study” (J Med Chem, 1997).
